Measurements reported in the kinase profiling compilation of Christmann-Franck et al. (2016).

Experiments:
Experiment in all cases: radiometric filter-binding kinase assay, Kinase HotSpot
Details in all cases: compound 0.5 µM; ATP 10 µM
JAK3 JH1 JH2 (human) = JAK3 JH1 JH2 (human) (UniProt P52333)
FGFR2 (human) = FGFR2 (human) (UniProt P21802)
PDPK1 (human) = PDPK1 (human) (UniProt O15530)
DSTYK (human) = DSTYK (human) (UniProt Q6XUX3)
EPHA4 (human) = EPHA4 (human) (UniProt P54764)
TAOK2 (human) = TAOK2 (human) (UniProt Q9UL54)
MAPKAPK2 (human) = MAPKAPK2 (human) (UniProt P49137)
STK3 (human) = STK3 (human) (UniProt Q13188)
ZAP70 (human) = ZAP70 (human) (UniProt P43403)
PRKD3 (human) = PRKD3 (human) (UniProt O94806)
PTK6 (human) = PTK6 (human) (UniProt Q13882)
PAK1 (human) = PAK1 (human) (UniProt Q13153)
ROCK2 (human) = ROCK2 (human) (UniProt O75116)
CAMKK1 (human) = CAMKK1 (human) (UniProt Q8N5S9)
MAPK1 (human) = MAPK1 (human) (UniProt P28482)
PIM3 (human) = PIM3 (human) (UniProt Q86V86)
CSNK2A1 (human) = CSNK2A1 (human) (UniProt P68400)
TAOK3 (human) = TAOK3 (human) (UniProt Q9H2K8)
AKT1 (human) = AKT1 (human) (UniProt P31749)
RPS6KA5 KD2 (human) = RPS6KA5 KD2 (human) (UniProt O75582)
KDR (human) = KDR (human) (UniProt P35968)
NEK7 (human) = NEK7 (human) (UniProt Q8TDX7)
CHEK1 (human) = CHEK1 (human) (UniProt O14757)
OXSR1 (human) = OXSR1 (human) (UniProt O95747)
ULK1 (human) = ULK1 (human) (UniProt O75385)
ACVR1 (human) = ACVR1 (human) (UniProt Q04771)
FGFR4 (human) = FGFR4 (human) (UniProt P22455)
NEK4 (human) = NEK4 (human) (UniProt P51957)
CLK4 (human) = CLK4 (human) (UniProt Q9HAZ1)
STK24 (human) = STK24 (human) (UniProt Q9Y6E0)
TEK (human) = TEK (human) (UniProt Q02763)
MAP3K5 (human) = MAP3K5 (human) (UniProt Q99683)
HIPK1 (human) = HIPK1 (human) (UniProt Q86Z02)
WEE1 (human) = WEE1 (human) (UniProt P30291)
MST1R (human) = MST1R (human) (UniProt Q04912)
EPHA7 (human) = EPHA7 (human) (UniProt Q15375)
MAP4K2 (human) = MAP4K2 (human) (UniProt Q12851)
BTK (human) = BTK (human) (UniProt Q06187)
CDK1 CCNB1 (human) = CDK1 CCNB1 (human) (UniProt P06493+P14635)
HIPK4 (human) = HIPK4 (human) (UniProt Q8NE63)
ROS1 (human) = ROS1 (human) (UniProt P08922)
IKBKB (human) = IKBKB (human) (UniProt O14920)

STK3 (human), sequence (Q13188 whole entry, looked up): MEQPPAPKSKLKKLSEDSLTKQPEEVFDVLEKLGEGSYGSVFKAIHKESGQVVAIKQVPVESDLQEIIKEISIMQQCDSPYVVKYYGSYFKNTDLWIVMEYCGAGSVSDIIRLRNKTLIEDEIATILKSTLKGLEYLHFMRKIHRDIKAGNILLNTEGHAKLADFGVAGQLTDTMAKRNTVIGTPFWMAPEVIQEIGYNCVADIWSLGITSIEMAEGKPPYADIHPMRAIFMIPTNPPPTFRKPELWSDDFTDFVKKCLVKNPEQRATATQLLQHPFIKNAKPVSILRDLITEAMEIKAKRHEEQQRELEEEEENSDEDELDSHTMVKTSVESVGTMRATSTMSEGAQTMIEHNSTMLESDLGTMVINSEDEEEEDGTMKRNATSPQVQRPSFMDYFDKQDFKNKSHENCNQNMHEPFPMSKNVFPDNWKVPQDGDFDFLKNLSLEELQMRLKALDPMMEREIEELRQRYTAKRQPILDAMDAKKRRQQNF
CAMKK1 (human), sequence (Q8N5S9 whole entry, looked up): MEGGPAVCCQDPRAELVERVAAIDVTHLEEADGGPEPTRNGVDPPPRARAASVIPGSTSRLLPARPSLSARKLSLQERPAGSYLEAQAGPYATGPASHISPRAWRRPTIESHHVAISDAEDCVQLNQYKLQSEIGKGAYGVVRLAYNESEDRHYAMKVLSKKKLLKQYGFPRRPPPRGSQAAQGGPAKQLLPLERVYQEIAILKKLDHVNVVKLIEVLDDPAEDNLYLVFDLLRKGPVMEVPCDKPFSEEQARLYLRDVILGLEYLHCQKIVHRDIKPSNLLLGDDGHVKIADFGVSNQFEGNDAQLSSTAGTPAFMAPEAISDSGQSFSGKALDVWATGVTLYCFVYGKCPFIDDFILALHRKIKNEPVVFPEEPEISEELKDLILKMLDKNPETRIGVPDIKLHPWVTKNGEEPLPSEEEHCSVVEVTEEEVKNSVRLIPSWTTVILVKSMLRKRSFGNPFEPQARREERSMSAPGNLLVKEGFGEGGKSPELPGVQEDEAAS
WEE1 (human), sequence (P30291 whole entry, looked up): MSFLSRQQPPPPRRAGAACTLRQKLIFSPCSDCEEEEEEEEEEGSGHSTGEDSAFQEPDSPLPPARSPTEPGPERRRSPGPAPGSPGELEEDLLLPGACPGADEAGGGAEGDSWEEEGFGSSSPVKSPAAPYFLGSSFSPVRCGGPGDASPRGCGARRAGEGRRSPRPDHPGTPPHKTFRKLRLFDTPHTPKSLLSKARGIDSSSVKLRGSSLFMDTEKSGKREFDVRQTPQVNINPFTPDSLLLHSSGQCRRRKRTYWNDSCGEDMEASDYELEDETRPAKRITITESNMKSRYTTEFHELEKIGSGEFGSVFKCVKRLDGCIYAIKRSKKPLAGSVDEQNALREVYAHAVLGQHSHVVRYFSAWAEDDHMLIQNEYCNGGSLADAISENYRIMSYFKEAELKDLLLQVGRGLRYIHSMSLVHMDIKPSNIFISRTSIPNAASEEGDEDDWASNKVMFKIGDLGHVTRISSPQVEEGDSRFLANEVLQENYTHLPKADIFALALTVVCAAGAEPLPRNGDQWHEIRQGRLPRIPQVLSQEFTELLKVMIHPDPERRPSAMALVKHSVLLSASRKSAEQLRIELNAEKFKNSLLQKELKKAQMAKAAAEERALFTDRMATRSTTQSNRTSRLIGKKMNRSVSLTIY
PTK6 (human), sequence (Q13882 whole entry, looked up): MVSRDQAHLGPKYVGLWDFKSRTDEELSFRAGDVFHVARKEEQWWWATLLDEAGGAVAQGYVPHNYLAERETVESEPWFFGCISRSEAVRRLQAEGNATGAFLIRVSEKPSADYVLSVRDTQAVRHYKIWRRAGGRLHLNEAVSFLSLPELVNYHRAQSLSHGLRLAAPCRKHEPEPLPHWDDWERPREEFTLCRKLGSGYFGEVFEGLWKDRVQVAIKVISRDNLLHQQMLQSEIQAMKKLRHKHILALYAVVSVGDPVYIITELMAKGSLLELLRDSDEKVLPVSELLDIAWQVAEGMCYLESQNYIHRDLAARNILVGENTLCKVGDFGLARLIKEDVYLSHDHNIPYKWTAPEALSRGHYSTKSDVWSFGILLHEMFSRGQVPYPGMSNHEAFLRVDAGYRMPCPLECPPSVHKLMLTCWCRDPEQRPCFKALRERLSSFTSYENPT
TAOK2 (human), sequence (Q9UL54 whole entry, looked up): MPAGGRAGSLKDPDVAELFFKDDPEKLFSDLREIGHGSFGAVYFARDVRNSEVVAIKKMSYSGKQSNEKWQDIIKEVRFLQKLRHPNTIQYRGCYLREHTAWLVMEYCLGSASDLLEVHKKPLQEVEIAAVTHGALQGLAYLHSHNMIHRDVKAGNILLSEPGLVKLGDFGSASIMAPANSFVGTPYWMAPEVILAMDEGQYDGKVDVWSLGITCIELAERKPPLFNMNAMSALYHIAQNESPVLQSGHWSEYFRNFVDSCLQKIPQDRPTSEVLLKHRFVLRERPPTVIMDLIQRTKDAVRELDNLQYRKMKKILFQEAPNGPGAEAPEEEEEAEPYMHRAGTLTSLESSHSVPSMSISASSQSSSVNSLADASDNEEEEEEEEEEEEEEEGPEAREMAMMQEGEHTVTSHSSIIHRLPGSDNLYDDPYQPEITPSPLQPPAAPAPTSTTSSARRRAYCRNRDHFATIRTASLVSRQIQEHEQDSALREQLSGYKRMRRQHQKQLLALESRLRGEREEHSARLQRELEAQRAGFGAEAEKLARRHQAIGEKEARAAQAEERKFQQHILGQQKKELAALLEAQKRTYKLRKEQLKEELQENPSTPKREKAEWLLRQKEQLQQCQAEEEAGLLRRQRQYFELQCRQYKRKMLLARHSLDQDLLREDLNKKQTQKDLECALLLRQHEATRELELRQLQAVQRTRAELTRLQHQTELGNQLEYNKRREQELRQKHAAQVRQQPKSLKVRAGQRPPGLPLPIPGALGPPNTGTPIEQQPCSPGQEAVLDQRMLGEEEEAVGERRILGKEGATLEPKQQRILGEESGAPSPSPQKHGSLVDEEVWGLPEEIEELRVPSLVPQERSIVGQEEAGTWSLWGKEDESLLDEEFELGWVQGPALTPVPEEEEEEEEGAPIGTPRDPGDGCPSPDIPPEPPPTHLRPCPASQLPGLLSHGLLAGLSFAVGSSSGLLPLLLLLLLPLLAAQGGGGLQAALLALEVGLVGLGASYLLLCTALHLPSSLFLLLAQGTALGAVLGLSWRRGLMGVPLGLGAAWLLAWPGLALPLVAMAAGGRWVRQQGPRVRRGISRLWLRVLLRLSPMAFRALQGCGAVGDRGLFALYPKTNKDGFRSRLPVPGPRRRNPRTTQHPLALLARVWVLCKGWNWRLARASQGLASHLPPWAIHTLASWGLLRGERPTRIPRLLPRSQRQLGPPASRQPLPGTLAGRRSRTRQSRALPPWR
STK24 (human), sequence (Q9Y6E0 whole entry, looked up): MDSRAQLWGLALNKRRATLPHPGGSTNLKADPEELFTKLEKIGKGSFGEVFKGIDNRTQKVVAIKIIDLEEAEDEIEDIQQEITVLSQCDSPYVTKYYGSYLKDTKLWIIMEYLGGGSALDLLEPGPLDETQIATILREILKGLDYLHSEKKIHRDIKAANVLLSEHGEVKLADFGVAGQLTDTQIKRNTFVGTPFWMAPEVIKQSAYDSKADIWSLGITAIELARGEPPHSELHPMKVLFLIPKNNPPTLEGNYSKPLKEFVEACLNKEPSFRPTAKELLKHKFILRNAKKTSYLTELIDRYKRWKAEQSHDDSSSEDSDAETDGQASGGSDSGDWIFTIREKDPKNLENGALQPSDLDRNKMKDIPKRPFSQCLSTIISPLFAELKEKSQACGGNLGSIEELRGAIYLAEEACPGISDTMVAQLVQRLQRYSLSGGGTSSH
MAPK1 (human), sequence (P28482 whole entry, looked up): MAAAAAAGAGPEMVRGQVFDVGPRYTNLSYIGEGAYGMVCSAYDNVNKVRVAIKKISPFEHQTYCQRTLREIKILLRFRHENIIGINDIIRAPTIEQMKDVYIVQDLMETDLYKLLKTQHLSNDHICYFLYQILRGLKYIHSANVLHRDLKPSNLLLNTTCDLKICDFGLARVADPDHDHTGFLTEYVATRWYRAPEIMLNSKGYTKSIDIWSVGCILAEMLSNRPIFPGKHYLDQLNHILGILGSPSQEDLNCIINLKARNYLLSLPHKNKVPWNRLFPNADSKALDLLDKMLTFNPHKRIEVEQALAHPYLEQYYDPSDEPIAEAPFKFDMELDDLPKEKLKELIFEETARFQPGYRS
PDPK1 (human), sequence (O15530 whole entry, looked up): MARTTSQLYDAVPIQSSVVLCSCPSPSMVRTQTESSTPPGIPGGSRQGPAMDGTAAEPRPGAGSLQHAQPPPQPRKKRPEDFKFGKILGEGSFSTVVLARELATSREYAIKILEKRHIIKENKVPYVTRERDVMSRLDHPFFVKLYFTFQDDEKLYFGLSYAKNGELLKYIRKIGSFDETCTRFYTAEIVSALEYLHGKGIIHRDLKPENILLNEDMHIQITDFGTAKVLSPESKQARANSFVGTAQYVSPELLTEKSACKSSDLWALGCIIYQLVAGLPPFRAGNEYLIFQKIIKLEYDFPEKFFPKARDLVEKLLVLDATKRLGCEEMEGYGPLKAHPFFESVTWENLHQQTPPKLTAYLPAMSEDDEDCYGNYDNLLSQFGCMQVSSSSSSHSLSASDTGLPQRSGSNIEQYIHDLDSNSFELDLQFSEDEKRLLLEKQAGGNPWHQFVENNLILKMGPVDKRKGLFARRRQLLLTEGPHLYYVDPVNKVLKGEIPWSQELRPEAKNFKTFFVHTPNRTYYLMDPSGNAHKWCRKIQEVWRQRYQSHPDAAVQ

`CC(C)[C@H](CO)Nc1nc(Nc2cccc(Cl)c2)c2ncn(C(C)C)c2n1` was tested, and the residual activity (JAK3 JH1 JH2 (human)) was 92.5%, the residual activity (FGFR2 (human)) was 105% and the residual activity (PDPK1 (human)) was 91.6%. For the same molecule, the residual activity (DSTYK (human)) was 105%, the residual activity (EPHA4 (human)) was 102% and the residual activity (TAOK2 (human)) was 91.3%. The residual activity (MAPKAPK2 (human)) was 102%, the residual activity (STK3 (human)) was 90.8% and the residual activity (ZAP70 (human)) was 99.7%. For the same molecule, the residual activity (PRKD3 (human)) was 95.5%, the residual activity (PTK6 (human)) was 89.2% and the residual activity (PAK1 (human)) was 92.8%. The residual activity (ROCK2 (human)) was 100%, the residual activity (CAMKK1 (human)) was 101% and the residual activity (MAPK1 (human)) was 86.7%. It also gave a residual activity (PIM3 (human)) of 84.9%, a residual activity (CSNK2A1 (human)) of 101% and a residual activity (TAOK3 (human)) of 91.1%. It also gave a residual activity (AKT1 (human)) of 102%, a residual activity (RPS6KA5 KD2 (human)) of 100% and a residual activity (KDR (human)) of 95%. For the same molecule, the residual activity (NEK7 (human)) was 101%, the residual activity (CHEK1 (human)) was 97.9% and the residual activity (OXSR1 (human)) was 94.4%. It also gave a residual activity (ULK1 (human)) of 67.5%, a residual activity (ACVR1 (human)) of 92.6% and a residual activity (FGFR4 (human)) of 79%. For the same molecule, the residual activity (NEK4 (human)) was 94.4%, the residual activity (CLK4 (human)) was 50.9% and the residual activity (STK24 (human)) was 80.8%. For the same molecule, the residual activity (TEK (human)) was 93.8%, the residual activity (MAP3K5 (human)) was 108% and the residual activity (HIPK1 (human)) was 103%. For the same molecule, the residual activity (WEE1 (human)) was 82.6%, the residual activity (MST1R (human)) was 90.6% and the residual activity (EPHA7 (human)) was 86.8%. For the same molecule, the residual activity (MAP4K2 (human)) was 97.6%, the residual activity (BTK (human)) was 75.6% and the residual activity (CDK1 CCNB1 (human)) was 34.9%. For the same molecule, the residual activity (HIPK4 (human)) was 88.7%, the residual activity (ROS1 (human)) was 88.1% and the residual activity (IKBKB (human)) was 107%.
With `COc1ccc(-c2cnc3c(-c4ccsc4)cnn3c2)cc1` the residual activity (JAK3 JH1 JH2 (human)) was 98.5%, the residual activity (FGFR2 (human)) was 92.4% and the residual activity (PDPK1 (human)) was 96%. For the same molecule, the residual activity (DSTYK (human)) was 97.6%, the residual activity (EPHA4 (human)) was 87.6% and the residual activity (TAOK2 (human)) was 97.4%. For the same molecule, the residual activity (MAPKAPK2 (human)) was 95.8%, the residual activity (STK3 (human)) was 97.7% and the residual activity (ZAP70 (human)) was 93.7%. For the same molecule, the residual activity (PRKD3 (human)) was 100%, the residual activity (PTK6 (human)) was 77.5% and the residual activity (PAK1 (human)) was 97%. It also gave a residual activity (ROCK2 (human)) of 90.4%, a residual activity (CAMKK1 (human)) of 79.2% and a residual activity (MAPK1 (human)) of 99.2%. The residual activity (PIM3 (human)) was 100%, the residual activity (CSNK2A1 (human)) was 101% and the residual activity (TAOK3 (human)) was 96.9%. The residual activity (AKT1 (human)) was 92.4%, the residual activity (RPS6KA5 KD2 (human)) was 90.3% and the residual activity (KDR (human)) was 79.8%. It also gave a residual activity (NEK7 (human)) of 109%, a residual activity (CHEK1 (human)) of 90.8% and a residual activity (OXSR1 (human)) of 90.3%. For the same molecule, the residual activity (ULK1 (human)) was 79%, the residual activity (ACVR1 (human)) was 91.1% and the residual activity (FGFR4 (human)) was 89.2%. The residual activity (NEK4 (human)) was 80%, the residual activity (CLK4 (human)) was 62% and the residual activity (STK24 (human)) was 95.5%. For the same molecule, the residual activity (TEK (human)) was 99.1%, the residual activity (MAP3K5 (human)) was 105% and the residual activity (HIPK1 (human)) was 99.8%. For the same molecule, the residual activity (WEE1 (human)) was 102%, the residual activity (MST1R (human)) was 91.6% and the residual activity (EPHA7 (human)) was 91.1%. It also gave a residual activity (MAP4K2 (human)) of 74.8%, a residual activity (BTK (human)) of 97.1% and a residual activity (CDK1 CCNB1 (human)) of 87.2%. For the same molecule, the residual activity (HIPK4 (human)) was 108%, the residual activity (ROS1 (human)) was 98.8% and the residual activity (IKBKB (human)) was 99.6%.
In the case of `CCCNC(=O)Nc1ccc(Oc2ncnc3cc(OC)c(OC)cc23)cc1Cl`, the residual activity (JAK3 JH1 JH2 (human)) is reported as 88.9%, the residual activity (FGFR2 (human)) is reported as 91.3% and the residual activity (PDPK1 (human)) is reported as 86.8%. For the same molecule, the residual activity (DSTYK (human)) was 88.6%, the residual activity (EPHA4 (human)) was 93.4% and the residual activity (TAOK2 (human)) was 94.5%. It also gave a residual activity (MAPKAPK2 (human)) of 101%, a residual activity (STK3 (human)) of 85% and a residual activity (ZAP70 (human)) of 102%. For the same molecule, the residual activity (PRKD3 (human)) was 93.4%, the residual activity (PTK6 (human)) was 48.3% and the residual activity (PAK1 (human)) was 93.8%. The residual activity (ROCK2 (human)) was 97.7%, the residual activity (CAMKK1 (human)) was 93.1% and the residual activity (MAPK1 (human)) was 101%. For the same molecule, the residual activity (PIM3 (human)) was 81.3%, the residual activity (CSNK2A1 (human)) was 105% and the residual activity (TAOK3 (human)) was 95.9%. The residual activity (AKT1 (human)) was 93%, the residual activity (RPS6KA5 KD2 (human)) was 95.6% and the residual activity (KDR (human)) was 19.7%. For the same molecule, the residual activity (NEK7 (human)) was 103%, the residual activity (CHEK1 (human)) was 77% and the residual activity (OXSR1 (human)) was 96.5%. For the same molecule, the residual activity (ULK1 (human)) was 83.2%, the residual activity (ACVR1 (human)) was 101% and the residual activity (FGFR4 (human)) was 73.9%. For the same molecule, the residual activity (NEK4 (human)) was 76%, the residual activity (CLK4 (human)) was 94.2% and the residual activity (STK24 (human)) was 91.7%. It also gave a residual activity (TEK (human)) of 87%, a residual activity (MAP3K5 (human)) of 102% and a residual activity (HIPK1 (human)) of 96.8%. It also gave a residual activity (WEE1 (human)) of 92.9%, a residual activity (MST1R (human)) of 89.3% and a residual activity (EPHA7 (human)) of 86.3%. For the same molecule, the residual activity (MAP4K2 (human)) was 83.1%, the residual activity (BTK (human)) was 98.6% and the residual activity (CDK1 CCNB1 (human)) was 98%. The residual activity (HIPK4 (human)) was 93.5%, the residual activity (ROS1 (human)) was 97.6% and the residual activity (IKBKB (human)) was 100%.
Molecule `O=c1cc(-c2cccc3c2Sc2ccccc2S3)oc(N2CCOCC2)c1` has a residual activity (JAK3 JH1 JH2 (human)) of 108%, a residual activity (FGFR2 (human)) of 98.7% and a residual activity (PDPK1 (human)) of 104%. It also gave a residual activity (DSTYK (human)) of 93.4%, a residual activity (EPHA4 (human)) of 101% and a residual activity (TAOK2 (human)) of 101%. It also gave a residual activity (MAPKAPK2 (human)) of 94.2%, a residual activity (STK3 (human)) of 101% and a residual activity (ZAP70 (human)) of 97.1%. It also gave a residual activity (PRKD3 (human)) of 83.4%, a residual activity (PTK6 (human)) of 90.6% and a residual activity (PAK1 (human)) of 92.3%. It also gave a residual activity (ROCK2 (human)) of 109%, a residual activity (CAMKK1 (human)) of 112% and a residual activity (MAPK1 (human)) of 100%. It also gave a residual activity (PIM3 (human)) of 52.3%, a residual activity (CSNK2A1 (human)) of 97.4% and a residual activity (TAOK3 (human)) of 115%. For the same molecule, the residual activity (AKT1 (human)) was 113%, the residual activity (RPS6KA5 KD2 (human)) was 117% and the residual activity (KDR (human)) was 95.9%. The residual activity (NEK7 (human)) was 105%, the residual activity (CHEK1 (human)) was 109% and the residual activity (OXSR1 (human)) was 96.1%. It also gave a residual activity (ULK1 (human)) of 91.9%, a residual activity (ACVR1 (human)) of 97.5% and a residual activity (FGFR4 (human)) of 100%. The residual activity (NEK4 (human)) was 90%, the residual activity (CLK4 (human)) was 101% and the residual activity (STK24 (human)) was 97.8%. It also gave a residual activity (TEK (human)) of 100%, a residual activity (MAP3K5 (human)) of 104% and a residual activity (HIPK1 (human)) of 99.6%. It also gave a residual activity (WEE1 (human)) of 98.3%, a residual activity (MST1R (human)) of 111% and a residual activity (EPHA7 (human)) of 106%. It also gave a residual activity (MAP4K2 (human)) of 109%, a residual activity (BTK (human)) of 104% and a residual activity (CDK1 CCNB1 (human)) of 88.5%. The residual activity (HIPK4 (human)) was 100%, the residual activity (ROS1 (human)) was 106% and the residual activity (IKBKB (human)) was 101%.
